Patent US10022315B2, “Oral composition for reinforcing skin tolerance following topical administration of a retinoid compound” (NUTRICOS TECHNOLOGIES, priority 2012, dated 2018)

Columns and labels:
Format in all cases: in vivo, human
[1] = system: menopausal women; test: Clinical study: evaluation by dermatologists of skin signs associated with the side effects of retinoic acid (score 0-9, on the face); details: scale 0-9, face
Procedure: (§1) The beneficial effect, in terms of reinforcing skin tolerance, of the food supplement of example 1 was assessed in a clinical study carried out according to the protocol which follows:
(§2) The study performed under dermatological control (30 dermatologists) was carried out in menopausal women (n=203), from 50 to 66 years old and showing moderate signs of photo-aging on the face.
(§3) These women were divided up into two treatment groups: • group 1 treated with 0.05% by weight retinoic acid, relative to the total weight of the composition, for 6 months at a rate of one application per day (control group), • group 2 treated with 0.05% by weight retinoic acid, relative to the total weight of the composition, for 6 months at a rate of one application per day, combined with daily intake of the food supplement as described in example 1. 3.1 Evaluation of Symptoms
(§4) The symptoms associated with skin tolerance were evaluated after 60, 120 and 180 days by, on the one hand, dermatologists and, on the other hand, by the subjects themselves.
Dermatologist Scoring Scale

[2] = system: menopausal women; test: Clinical study: evaluation by the patients of skin signs associated with the side effects of retinoic acid (none/mild/moderate/severe, on the face)
Procedure: as §1, §2, §3, §4
During the last 2 months, have you experienced on the face

[3] = system: menopausal women; test: Clinical study: overall evaluation of skin tolerance to the treatments by the dermatologists (questionnaire)
Procedure: as §1, §2, §3
(§5) Skin tolerance to the treatments was checked after 60, 120 and 180 days by means of questionnaires given to the dermatologists and the subjects participating in the study.
(§6) Tables 1 (evaluations by the dermatologists) and 2 (self-evaluation by the subjects) summarize the skin tolerance results obtained in groups 1 and 2. The results are expressed as of subjects, in reply to the following question: “do you consider thus far that the tolerance to the treatment is”. The possible replies were excellent, good, average and poor.

[4] = system: menopausal women; test: Clinical study: overall evaluation of skin tolerance to the treatments by the subjects (questionnaire)
Procedure: as §1, §2, §3, §5, §6

CC1=C(/C=C/C(C)=C/C=C/C(C)=C/C(=O)O)C(C)(C)CCC1 [GROUP 1, retinoic acid]
Pruritus, mean score (dermatologists) ([1]; D0): 0.6
Sign of desquamation, mean score (dermatologists) ([1]; D0): 1.6
Sign of redness, mean score (dermatologists) ([1]; D0): 1.2
Sign of skin dryness, mean score (dermatologists) ([1]; D0): 3.2
Pruritus, mean score (dermatologists) ([1]; D60): 1.2
Sign of desquamation, mean score (dermatologists) ([1]; D60): 1.8
Sign of redness, mean score (dermatologists) ([1]; D60): 1.6
Sign of skin dryness, mean score (dermatologists) ([1]; D60): 2.7
Pruritus, mean score (dermatologists) ([1]; D120): 0.9
Sign of desquamation, mean score (dermatologists) ([1]; D120): 1.5
Sign of redness, mean score (dermatologists) ([1]; D120): 1.3
Sign of skin dryness, mean score (dermatologists) ([1]; D120): 2.2
Pruritus, mean score (dermatologists) ([1]; D180): 0.6
Sign of desquamation, mean score (dermatologists) ([1]; D180): 1.1
Sign of redness, mean score (dermatologists) ([1]; D180): 1.0
Sign of skin dryness, mean score (dermatologists) ([1]; D180): 1.7
Desquamation, patients replying mild (Mi) ([2]; D60): 41%
Desquamation, patients replying moderate (Mo) ([2]; D60): 21%
Desquamation, patients replying severe (S) ([2]; D60): 1%
Redness, patients replying mild (Mi) ([2]; D60): 46%
Redness, patients replying moderate (Mo) ([2]; D60): 13%
Redness, patients replying severe (S) ([2]; D60): 0%
Signs of discomfort, patients replying mild (Mi) ([2]; D60): 42%
Signs of discomfort, patients replying moderate (Mo) ([2]; D60): 15%
Signs of discomfort, patients replying severe (S) ([2]; D60): 0%
Tautness, patients replying mild (Mi) ([2]; D60): 49%
Tautness, patients replying moderate (Mo) ([2]; D60): 10%
Tautness, patients replying severe (S) ([2]; D60): 1%
Desquamation, patients replying mild (Mi) ([2]; D120): 42%
Desquamation, patients replying moderate (Mo) ([2]; D120): 14%
Desquamation, patients replying severe (S) ([2]; D120): 0%
Itching, patients replying mild (Mi) ([2]; D120): 42%
Itching, patients replying moderate (Mo) ([2]; D120): 7%
Itching, patients replying severe (S) ([2]; D120): 0%
Redness, patients replying mild (Mi) ([2]; D120): 49%
Redness, patients replying moderate (Mo) ([2]; D120): 7%
Redness, patients replying severe (S) ([2]; D120): 1%
Signs of discomfort, patients replying mild (Mi) ([2]; D120): 35%
Signs of discomfort, patients replying moderate (Mo) ([2]; D120): 13%
Signs of discomfort, patients replying severe (S) ([2]; D120): 0%
Tautness, patients replying mild (Mi) ([2]; D120): 43%
Tautness, patients replying moderate (Mo) ([2]; D120): 8%
Tautness, patients replying severe (S) ([2]; D120): 0%
Desquamation, patients replying mild (Mi) ([2]; D180): 35%
Desquamation, patients replying moderate (Mo) ([2]; D180): 8%
Desquamation, patients replying severe (S) ([2]; D180): 0%
Itching, patients replying mild (Mi) ([2]; D180): 35%
Itching, patients replying moderate (Mo) ([2]; D180): 4%
Itching, patients replying severe (S) ([2]; D180): 0%
Redness, patients replying mild (Mi) ([2]; D180): 35%
Redness, patients replying moderate (Mo) ([2]; D180): 6%
Redness, patients replying severe (S) ([2]; D180): 0%
Signs of discomfort, patients replying mild (Mi) ([2]; D180): 31%
Signs of discomfort, patients replying moderate (Mo) ([2]; D180): 7%
Signs of discomfort, patients replying severe (S) ([2]; D180): 0%
Tautness, patients replying mild (Mi) ([2]; D180): 35%
Tautness, patients replying moderate (Mo) ([2]; D180): 7%
Tautness, patients replying severe (S) ([2]; D180): 1%
Itching, patients replying mild (Mi) ([2]; J60 (D60)): 48%
Itching, patients replying moderate (Mo) ([2]; J60 (D60)): 15%
Itching, patients replying severe (S) ([2]; J60 (D60)): 0%
Tolerance to the treatment judged Average by the dermatologists, subjects ([3]; D60): 24%
Tolerance to the treatment judged Excellent by the dermatologists, subjects ([3]; D60): 15%
Tolerance to the treatment judged Good by the dermatologists, subjects ([3]; D60): 62%
Tolerance to the treatment judged Poor by the dermatologists, subjects ([3]; D60): 0%
Tolerance to the treatment judged Average by the dermatologists, subjects ([3]; D120): 23%
Tolerance to the treatment judged Excellent by the dermatologists, subjects ([3]; D120): 20%
Tolerance to the treatment judged Good by the dermatologists, subjects ([3]; D120): 58%
Tolerance to the treatment judged Poor by the dermatologists, subjects ([3]; D120): 0%
Tolerance to the treatment judged Average by the dermatologists, subjects ([3]; D180): 15%
Tolerance to the treatment judged Excellent by the dermatologists, subjects ([3]; D180): 23%
Tolerance to the treatment judged Good by the dermatologists, subjects ([3]; D180): 63%
Tolerance to the treatment judged Poor by the dermatologists, subjects ([3]; D180): 0%
Tolerance to the treatment judged Average by the subjects, subjects ([4]; D60): 20%
Tolerance to the treatment judged Excellent by the subjects, subjects ([4]; D60): 18%
Tolerance to the treatment judged Good by the subjects, subjects ([4]; D60): 63%
Tolerance to the treatment judged Poor by the subjects, subjects ([4]; D60): 0%
Tolerance to the treatment judged Average by the subjects, subjects ([4]; D120): 21%
Tolerance to the treatment judged Excellent by the subjects, subjects ([4]; D120): 25%
Tolerance to the treatment judged Good by the subjects, subjects ([4]; D120): 54%
Tolerance to the treatment judged Poor by the subjects, subjects ([4]; D120): 1%
Tolerance to the treatment judged Average by the subjects, subjects ([4]; D180): 15%
Tolerance to the treatment judged Excellent by the subjects, subjects ([4]; D180): 30%
Tolerance to the treatment judged Good by the subjects, subjects ([4]; D180): 53%
Tolerance to the treatment judged Poor by the subjects, subjects ([4]; D180): 2%
